# Data published in US6875757B2, “LPA receptor agonists and antagonists and methods of use” (University of Tennessee Research Foundation, priority 2000, dated 2005).
# Where two headings read alike, the source gives them in different places.
# Key:
# Assay type in all cases: cell-based
# [1] = molecular target: PSP24 PLGFR (Xenopus laevis, UniProt P79945); assay: Xenopus oocyte assay: LPA-induced oscillatory chloride currents (two-electrode voltage clamp); settings: for inhibition of LPA-induced chloride currents: Xenopus oocytes, extracellular application
# Sequence of PSP24 PLGFR (P79945 whole entry): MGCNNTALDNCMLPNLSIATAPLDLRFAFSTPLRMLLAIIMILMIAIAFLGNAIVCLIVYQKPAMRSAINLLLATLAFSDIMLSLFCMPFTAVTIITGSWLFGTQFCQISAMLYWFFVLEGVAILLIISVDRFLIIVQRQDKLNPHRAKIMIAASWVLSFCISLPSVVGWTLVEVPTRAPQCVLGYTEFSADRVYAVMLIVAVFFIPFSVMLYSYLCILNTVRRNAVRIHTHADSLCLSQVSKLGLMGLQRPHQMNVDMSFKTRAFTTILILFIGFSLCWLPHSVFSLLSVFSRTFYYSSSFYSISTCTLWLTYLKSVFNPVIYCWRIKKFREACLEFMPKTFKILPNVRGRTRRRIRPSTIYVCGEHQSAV
# Protocol: Xenopus oocytes which endogenously express PSP24 PLGFR were used to screen the newly designed and synthesized compounds for their LPA inhibitory activity.
# (§1) Oocytes were obtained from xylazine-anesthetized adult Xenopus laevis frogs (Carolina Scientific, Burlington, N.C.) under aseptic conditions and prepared for experiment. […] Oocytes were kept in Barth's solution in an incubator between 17-20° C. and were used for 2-7 days after isolation.
# (§2) Electrophysiological recordings were carried out using a standard two-electrode voltage-clamp amplifier holding the membrane potential at −60 mV (GeneClamp 500, Axon Instruments, Calif.). […] Membrane currents were recorded with a NIC-310 digital oscilloscope (Nicolet, Madison, Wis.). Applications were made at intervals of 15 mins (minimum) to allow for the appropriate washout and recovery from desensitization.
# as §1
# as §2, with “CA).” for “Calif.).”
# [2] = system: HEY ovarian cancer cells; assay: LPA-induced HEY ovarian cancer cell migration (cell motility); settings: compound 1 μM against 0.1 μM LPA
# Protocol: It is known that two LPA receptors, EDG-2 and EDG-7, are expressed in HEY ovarian cancer cells, so compounds 56, 56a, and 66 were evaluated for their ablity to inhibit LPA-induced cell motility (compound conc: 1 μM against 0.1 μM LPA conc:).
# HEY ovarian cells were maintained in RPMI 1640 medium with 2 mM L-glutamine (GIBCO BRL) supplemented with 10% fetal bovine serum (FBS, Hyclone). All cells were synchronized to the Go/G1 stage by growing them to confluency for 2 days. The cells were replated and harvested for experiments when cells were about 50-60% confluent on the flask. After removal of the cells from the flask, they were exposed for 5 min to 0.53 mM EDTA in PBS at 37° C. EDTA was neutralized with equal volume of RPMI 1640 plus 2 mM L-glutamine and 10% FBS. Cells were centrifuged at 800 rpm for 10 min at room temperature. Harvested cells were washed twice with RPMI 1640 with 2 mM L-glutamine medium and resuspended in the concentration of 1×10^6 cells/ml, and then rested for 1 hr at 37° C.
# A modified quantitative cell migration assay (Cat. # ECM500 from Chemicon, Temecula, Calif.) was used to test cell motility. The Chemicon chamber membrane was coated with fibronectin-containing pores of 8 microns in diameter. A 400 μl RPMI/2 mM L-glutamine containing either no inhibitors or inhibitors (1 μM) were pippetted into the lower chamber. About 5×10^4 cells in RPMI 1640/2 mM L-glutamine were added to the top chamber. The 24-well plates with inserts were incubated for 4 hours in a 5% CO2 incubator at 37° C. At the end of incubation, the chambers were removed to a fresh 24-well plate, and the cells on the inside chamber were removed by a swab several times and placed in the prepared Cell Stain Solution for 30 minutes at room temperature. At the end of incubation, Cell Stain Solution was removed from the wells. The chambers were washed 3 times with 1 mL PBS per well. After the final PBS wash, the chambers were examined to confirm proper cell morphology, and adherent cells were counted using an inverted microscope.
# [3] = system: DU-145 prostate cancer cell line; assay: Cytotoxicity / growth inhibition (SRB), DU145; settings: read-out: IC50 ± SEM, DU145
# Protocol: (§3) Cells were removed from stock flasks using trypsin, centrifuged, resuspended in fresh media, and plated at a density of approximately 2,000 cells/well in 96-well culture plates. Final drug concentrations ranged from 0.05 to either 10 or 50 μM. Control experiments with no drug added (negative control) and 5-fluorouracil added (positive control) were performed in parallel. Media was removed and replaced at 48 hours to minimize the effects of drug degradation during the course of the experiment. After 96 hours drug exposure, cells were fixed by the addition of cold 50% trichloroacetic acid (TCA) and incubation at 4° C. for 1 hour. Fixed cells were stained with sulforhodamine B (SRB), and cell number was determined by comparison of absorbance at 540 nm, as compared to a standard curve of cell number versus absorbance. Experiments were performed in duplicate.
# [4] = system: PC-3 prostate cancer cell line; assay: Cytotoxicity / growth inhibition (SRB), PC-3; settings: 96 hours drug exposure, read-out: IC50 ± SEM, PC-3
# Protocol: as §3
# [5] = system: LNCaP prostate cancer cell line; assay: Cytotoxicity / growth inhibition (SRB), LNCaP; settings: 96 hours drug exposure, read-out: IC50 ± SEM, LNCaP
# Protocol: as §3
# [6] = molecular target: T1, human Edg-2 (Homo sapiens, UniProt Q92633); assay: Ca2+ responses (Fura-2) in RH7777 cells expressing Edg-2; settings: 250 nM LPA 18:1 mixed with 10 μM lipid
# T1 construct: expressed in transfected cells
# T1 sequence (Q92633 whole entry): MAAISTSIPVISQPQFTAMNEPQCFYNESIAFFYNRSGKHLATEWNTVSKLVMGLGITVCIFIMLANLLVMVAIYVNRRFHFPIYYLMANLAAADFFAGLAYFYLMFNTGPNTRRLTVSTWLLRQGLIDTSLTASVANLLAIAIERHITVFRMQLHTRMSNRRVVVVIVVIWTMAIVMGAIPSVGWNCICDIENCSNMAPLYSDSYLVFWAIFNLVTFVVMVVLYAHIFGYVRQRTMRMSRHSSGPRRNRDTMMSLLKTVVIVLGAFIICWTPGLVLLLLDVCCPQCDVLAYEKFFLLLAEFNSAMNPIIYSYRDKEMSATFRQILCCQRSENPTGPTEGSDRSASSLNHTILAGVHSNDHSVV
# Protocol: (§4) RH7777 cells were transfected with the cDNA constructs encoding human Edg-2, Edg-4, or Edg-7 and then were subcloned into the pCDNA3 expression vector using the Cytofectene transfection reagent according to the manufacturers' protocol. Transfected cells were selected in DMEM containing 10% FBS and 1 mg/ml geneticin. Resistant cells were collected and subcloned by limiting dilution. The resulting clones were then screened using functional assays and RT-PCR analysis. Data are representative of three individual clones.
# [7] = molecular target: T2, human Edg-4 (Homo sapiens, UniProt Q9HBW0); assay: Ca2+ responses (Fura-2) in RH7777 cells expressing Edg-4 (stable or transient); settings: stable Edg-4; 500 nM LPA 18:1 mixed with 5 μM lipid
# T2 construct: expressed in transfected cells
# T2 sequence (Q9HBW0 whole entry): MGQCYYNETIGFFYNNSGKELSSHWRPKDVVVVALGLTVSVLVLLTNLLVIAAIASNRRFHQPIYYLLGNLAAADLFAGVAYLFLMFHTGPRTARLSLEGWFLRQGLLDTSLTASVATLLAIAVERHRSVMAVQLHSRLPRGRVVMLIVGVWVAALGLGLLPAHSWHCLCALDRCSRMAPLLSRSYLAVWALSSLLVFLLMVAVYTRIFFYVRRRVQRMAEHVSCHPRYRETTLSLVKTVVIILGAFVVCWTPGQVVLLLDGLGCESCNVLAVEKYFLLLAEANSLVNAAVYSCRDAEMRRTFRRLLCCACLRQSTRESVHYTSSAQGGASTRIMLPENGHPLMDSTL
# Source text: RH7777 cells, stably expressing human Edg-4, were kindly provided by Dr. Kevin Lynch (University of Virginia, Charlottesville, Va.). Flag-tagged cDNA's encoding human Edg-4 and -7 inserted into the pCDNA3 expression plasmid (Invitrogen, Carlsbad, Calif.), were a generous gift from Dr. Junken Aoki (University of Tokyo, Tokyo, Japan). RH7777 and NIH3T3 cells were obtained from the American Type Culture Collection (Manassas, Va.). HEY cells were provided by Dr. Lisa Jennings (University of Tennessee, Memphis). All cell lines were maintained in Dulbecco's Modified Eagle's Medium (DMEM) containing 10% FBS and 2 mM glutamine. Oocytes were obtained from adult Xenopus laevis frogs as previously described (Tigyi et al., 1999).
# as §4
# RH7777 cells were plated on polylysine-coated glass coverslips (Bellco, Vineland, N.J.) one day prior to transfection. The following day, cells were transfected overnight (16-18 hr) with 1 μg of plasmid DNA mixed with 6 μl of Cytofectene. The cells were then rinsed twice with DMEM and cultured in DMEM containing 10% FBS. The next day, the cells were rinsed with DMEM and serum was withdrawn for a minimum of 2 hr prior to monitoring intracellular Ca^2+.
# [8] = molecular target: T3, human Edg-7 (Homo sapiens, UniProt Q9UBY5); assay: Ca2+ responses (Fura-2) in RH7777 cells expressing Edg-7; settings: 250 nM LPA 18:1 mixed with 500 nM lipid
# T3 construct: Flag; expressed in transfected cells
# T3 sequence (Q9UBY5 1-353): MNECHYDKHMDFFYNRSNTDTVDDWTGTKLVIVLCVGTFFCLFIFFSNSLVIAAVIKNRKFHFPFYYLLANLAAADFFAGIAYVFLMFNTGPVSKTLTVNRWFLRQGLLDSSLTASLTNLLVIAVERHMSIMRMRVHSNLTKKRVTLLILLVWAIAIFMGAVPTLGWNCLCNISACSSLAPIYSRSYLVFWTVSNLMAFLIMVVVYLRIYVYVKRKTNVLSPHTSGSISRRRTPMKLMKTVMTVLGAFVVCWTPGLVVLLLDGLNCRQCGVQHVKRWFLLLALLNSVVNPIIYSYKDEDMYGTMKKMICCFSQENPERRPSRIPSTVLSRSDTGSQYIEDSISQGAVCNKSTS
# Protocol: as §4
# [9] = system: HEY ovarian cancer cells; assay: Ca2+ responses in HEY ovarian cancer cells; settings: 100 nM LPA 18:1 mixed with 1 μM lipid
# Source text: Likewise, PA 8:0 inhibited the Ca^2+ response to 6% of control, whereas PA 18:1 had no effect. HEY express mRNA transcripts for Edg-1, -2, -5, -7 receptors (FIG. 34C).
# [10] = system: NIH3T3 cells; assay: LPA-elicited proliferation of NIH3T3 cells (cell counting); settings: 5 μM LPA 18:1 mixed with 10 μM lipid, 24 hr
# Protocol: Proliferation of NIH3T3 cells was assessed by direct cell counting as previously described (Tigyi et al., 1999). NIH3T3 cells were plated in 24-well plates at a density of 10,000 cells/well, in DMEM containing 10% FBS. The following day, the cells were rinsed and serum starved in DMEM for 6 hr. Lipids were then added for 24 hr. Cell numbers were determined by counting in a Coulter counter (Coulter Electronics, Hialeah, Fla.).
molecule,measurement,setting,value
"CCCCCCCCCCCCCCCCCCOCC(COP(=O)(O)O)OP(=O)(O)O (centres unmarked) [Compound 66, 1,2-(3-Octadecyloxypropane)-bis(dihydrogen phosphate)]",effect on LPA response after intracellular microinjection,"[1]; 5 μM microinjected inside the cell, then extracellular LPA (10 nM)",failed to inhibit the LPA response
same,inhibition of LPA-induced chloride currents,[1],inhibitors of LPA-induced chloride current
same,reversibility of inhibition of LPA-induced chloride currents,[1]; after washing the oocyte,reversible
same,effect on the LPA response at 5 μM,[1]; compound at 5 μM,completely abolished the effect of LPA
same,inhibition at 1 µM,[2],~70%
same,IC50,"[3]; Homo sapiens, DU-145, 96 hours drug exposure",> 10 µM
same,IC50,[4],> 10 µM
same,IC50,"[5]; Homo sapiens, LNCaP",3.1 ± 3.2 µM
2-Amino-3-(nonylamino)-3-oxopropyl dihydrogen phosphate [Compound 55],inhibition of LPA-induced response,[1]; compound at 1 μM against 2 nM LPA,38%
same,effect on LPA-induced cell motility,[2],potentiated the LPA-induced cell motility
same,IC50,[3]; 96 hours drug exposure,24.9 ± 4.1 µM
same,IC50,[4],31.6 ± 9 µM
same,IC50,[5],4.9 ± 2.6 µM
"CCCCCCCCCCCCCCNC(=O)C(COP(=O)(O)O)NC(C)=O (centres unmarked) [Compound 56a, 2-(Acetylamino)-3-oxo-3-(tetradecylamino) propyl dihydrogen phosphate]",effect on LPA response when applied in combination with LPA,[1]; applied in combination with LPA,enhanced the LPA response
same,response elicited by compound alone at 2 μM,"[1]; compound alone, 2 μM",did not elicit a response
same,response elicited by compound alone at 10 μM,"[1]; compound alone, 10 μM",able to elicit a response on its own
same,effect on LPA-induced cell motility,[2],potentiated the LPA-induced cell motility
same,IC50,[3]; 96 hours drug exposure,0.7 ± 0.1 µM
same,IC50,[5],30.3 ± 7.9 µM
Phosphatidic acid [PA 8:0],inhibition of LPA-induced chloride currents,[1],effective at inhibiting the LPA-elicited responses
same,"Ca2+ response, % of control",[6],19 % of control
same,"Ca2+ responses, % of control",[7],162 % of control
same,inhibition of the Ca2+ responses,[8],56%
same,"LPA-elicited Ca2+ response, % of control",[9],6 % of control
same,effect on LPA-induced proliferation,[10],had no significant inhibition
"CCCCCCCC(=O)OC[C@H](COP(=O)(O)OP(=O)(O)O)OC(=O)CCCCCCC [DGPP 18:1, diacylglycerol pyrophosphate]",inhibitory effect on LPA-elicited Ca2+ response,[6],no longer had an inhibitory effect
same,effect on LPA-elicited Ca2+ responses,[8],no longer inhibitors of Edg-7
same,effect on LPA-elicited Ca2+ response,[9],had no effect
same,effect on LPA-induced proliferation,[10],"Neither DGPP 18:1, nor long- and short-chain PA and DAG had an effect"
